Results: patent publication US6355409B1, “Tagatose as a cytoprotective supplement for the removal and/or storage of organs to reduce reperfusion injury” (Biospherics Incorporated, priority 2000, dated 2002)

Columns and labels:
organ, e.g., a liver = assay: Removal and/or storage of organ in tagatose-containing organ storage solution (Examples 1-3); parameters: species or system human; details: tagatose solution containing about 0.36% by weight of tagatose, with nutrients and electrolytes
Description: After the organ, e.g., a liver is accessed by surgery on a human subject, three liters of chilled tagatose solution containing about 0.36% by weight of tagatose are used to flush the blood from it and to cool the organ while still on the body. The tagatose solution contains the amounts of nutrients and electrolytes common to present day storage solutions, such as Viaspan. […] The organ is then removed and placed into a chilled sterile container, holding more of the tagatose solution, for refrigerated storage until the transplant occurs. The ischemia time is shorter in this procedure than in Example 1. The donor organ is removed and perfused with tagatose solution containing about 0.36% by weight of tagatose that, again, contains the requisite nutrients and electrolytes. The organ is then placed into a sterile container that contains more of the same tagatose solution. That sterile container is placed into two more sterile containers and is then placed on ice for immediate transit to the organ recipient. The organ is removed as described in Example 1. It is flushed and perfused with tagatose solution, containing about 0.36% by weight of tagatose, and containing the requisite nutrients and electrolytes. The organ is placed in a sterile container with more of the same tagatose solution. Two protocols may be used for storage a. […]

liver cells = assay: Exposure of organ cells to tagatose, ATP level; type: cell-based; details: exposure of organ cells such as liver cells to tagatose
[1] = high concentrations; cited from earlier work

| SMILES | reperfusion injury of the organ (organ, e.g., a liver) | ATP in organ cells (liver cells) | toxicity [1] |
| --- | --- | --- | --- |
| O=C(CO)[C@@H](O)[C@@H](O)[C@H](O)CO [tagatose] | reduces reperfusion injury | massively decreases ATP | – |
| CC(=O)N(O)CCCCCNC(=O)CCC(=O)N(O)CCCCCNC(=O)CCC(=O)N(O)CCCCCN [deferoxamine] | – | – | toxic at high concentrations |
